Experimental data published in patent US10759767B2 (priority 2012, dated 2020).
Where two headings read alike, the source gives them in different places.

Assays:
Format in all cases: cell-based
[1] = test system: Septoria tritici; assay: Microtest: activity against leaf blotch on wheat caused by Septoria tritici (Septtr); details: solo product
[2] = test system: Alternaria solani; assay: Microtest: activity against early blight caused by Alternaria solani (Alteso); details: for inhibition of growth at 6.3e-05 ppm: solo 0.000063 ppm
[3] = test system: Leptosphaeria nodorum; assay: Microtest: activity against wheat leaf spots caused by Leptosphaeria nodorum (Leptno)
[4] = test system: Botrytis cinerea; assay: Microtest: activity against the grey mold Botrytis cinerea (Botrci); details: for inhibition of growth at 6.3e-05 ppm: solo 0.000063 ppm
[5] = test system: Phytophthora infestans; assay: microbe, parasite or virus in culture; details: for Observed efficacy: solo product
[6] = test system: Pyricularia oryzae; assay: microbe, parasite or virus in culture; details: for Observed efficacy: solo product
[7] = Zymoseptoria tritici, 168 h, second Septtr microtest, 0.000016 ppm, read-out: Observed efficacy
[8] = Alternaria solani, 168 h, read-out: Observed efficacy
[9] = Botrytis cinerea, 168 h, read-out: Observed efficacy
[10] = Botrytis cinerea, 168 h, solo 0.063 ppm, read-out: Observed efficacy
[11] = Phytophthora infestans, 168 h, read-out: Observed efficacy
[12] = Pyricularia oryzae, 168 h, read-out: Observed efficacy
[13] = second Septtr microtest, 63 ppm

CN1COCN(Cc2cnc(Cl)s2)/C1=N\[N+](=O)[O-] [Thiamethoxam]
Observed efficacy ([1]; second Septtr microtest, 1 ppm): 57%
Observed efficacy ([2]; solo 1 ppm): 10
Observed efficacy ([2]; solo 4 ppm): 51
Observed efficacy ([3]; solo 1 ppm): 22
Observed efficacy ([3]; solo 4 ppm): 51

O=C(Nc1ccccc1-c1ccc(Cl)cc1)c1cccnc1Cl [II-7, boscalid, reference compound]
Observed efficacy ([2]; solo 0.001 ppm): 5
Observed efficacy ([2]; solo 0.004 ppm): 6
Observed efficacy ([3]; solo 4 ppm): 23

N#Cc1c(Cl)c(Cl)c(Cl)c(C#N)c1Cl [II-11, chlorothalonil, reference compound]
Observed efficacy ([3]; solo 1 ppm): 28

OC(Cn1cncn1)(c1ccc(Oc2ccc(Cl)cc2)cc1C(F)(F)F)C1CC1 (stereo not shown) [I-4, 1-[4-(4-chlorophenoxy)-2-(trifluoromethyl)phenyl]-1-cyclopropyl-2-(1,2,4-triazol-1-yl)ethanol]
inhibition of growth at 1.6e-05 ppm [1, 7]: 3%
inhibition of growth at 6.3e-05 ppm ([1]; Zymoseptoria tritici, 168 h, second Septtr microtest, 0.000063 ppm, read-out: Observed efficacy): 8%
inhibition of growth at 0.001 ppm ([1]; Zymoseptoria tritici, 168 h, 0.001 ppm, read-out: Observed efficacy): 0%
Observed efficacy ([1]; second Septtr microtest, 0.001 ppm): 0%
Observed efficacy ([1]; 0.016 ppm): 18
inhibition of growth at 6.3e-05 ppm [2, 8]: 5%
inhibition of growth at […] ([2]; Alternaria solani, 168 h, solo 0.00025 ppm, read-out: Observed efficacy): 7%
inhibition of growth at 0.001 ppm ([2]; Alternaria solani, 168 h, solo 0.001 ppm, read-out: Observed efficacy): 10%
inhibition of growth at […] ([2]; Alternaria solani, 168 h, solo 0.25 ppm, read-out: Observed efficacy): 33%
inhibition of growth at 6.3e-05 ppm [4, 9]: 4%
inhibition of growth at […] ([4]; Botrytis cinerea, 168 h, solo 0.00025 ppm, read-out: Observed efficacy): 2%
inhibition of growth at 0.001 ppm ([4]; Botrytis cinerea, 168 h, solo 0.001 ppm, read-out: Observed efficacy): 5%
inhibition of growth at […] [4, 10]: 4%
inhibition of growth at […] ([4]; Botrytis cinerea, 168 h, solo 0.25 ppm, read-out: Observed efficacy): 17%
inhibition of growth at 0.001 ppm ([3]; Parastagonospora nodorum, 168 h, solo 0.001 ppm, read-out: Observed efficacy): 15%
inhibition of growth at 4 ppm [5, 11]: 3%
inhibition of growth at 16 ppm [5, 11]: 9%
inhibition of growth at 1 ppm [6, 12]: 47%

CC1(C)CC/C(=C\c2ccc(Cl)cc2)C1(O)Cn1cncn1 (stereo not shown) [Triticonazol]
Observed efficacy ([5]; 16 ppm): 0%
Observed efficacy ([6]; 1 ppm): 1%
Observed efficacy ([6]; 4 ppm): 59%

O=c1c2cc(F)ccc2nc(-n2cncn2)n1-c1ccc(Cl)cc1Cl [Fluquinconazol]
Observed efficacy ([1]; 0.004 ppm): 0%
Observed efficacy ([5]; 4 ppm): 0%
Observed efficacy ([6]; 1 ppm): 1%

N#Cc1nn(-c2c(Cl)cc(C(F)(F)F)cc2Cl)c(N)c1[S+]([O-])C(F)(F)F (stereo not shown) [II-20c, fipronil, reference compound]
Observed efficacy ([2]; solo 1 ppm): 6
Observed efficacy ([2]; solo 4 ppm): 2

CC(C)(C)C(O)(CCc1ccc(Cl)cc1)Cn1cncn1 (stereo not shown) [Tebuconazol]
Observed efficacy ([2]; solo 0.016 ppm): 8
Observed efficacy ([4]; solo 0.016 ppm): 9
Observed efficacy ([5]; 1 ppm): 25

CC(O)(Cn1cncn1)c1ccc(Oc2ccc(Cl)cc2)cc1C(F)(F)F (stereo not shown) [I-3, 2-[4-(4-chlorophenoxy)-2-(trifluoromethyl)phenyl]-1-(1,2,4-triazol-1-yl)propan-2-ol]
inhibition of growth at 2.5e-07 ppm ([1]; Zymoseptoria tritici, 168 h, second Septtr microtest, 0.00000025 ppm, read-out: Observed efficacy): 8%
inhibition of growth at 1e-06 ppm ([1]; Zymoseptoria tritici, 168 h, second Septtr microtest, 0.000001 ppm, read-out: Observed efficacy): 5%
inhibition of growth at 4e-06 ppm ([1]; Zymoseptoria tritici, 168 h, second Septtr microtest, 0.000004 ppm, read-out: Observed efficacy): 14%
inhibition of growth at 1.6e-05 ppm [1, 7]: 16%
Observed efficacy ([1]; 0.000016 ppm): 16
Observed efficacy ([1]; 0.004 ppm): 54
inhibition of growth at 4e-06 ppm ([2]; Alternaria solani, 168 h, solo 0.000004 ppm, read-out: Observed efficacy): 5%
inhibition of growth at 6.3e-05 ppm [2, 8]: 8%
Observed efficacy ([2]; solo product, 0.000016 ppm): 0%
inhibition of growth at 4e-06 ppm ([4]; Botrytis cinerea, 168 h, solo 0.000004 ppm, read-out: Observed efficacy): 0%
inhibition of growth at 1.6e-05 ppm ([4]; Botrytis cinerea, 168 h, solo 0.000016 ppm, read-out: Observed efficacy): 5%
inhibition of growth at 6.3e-05 ppm [4, 9]: 0%
inhibition of growth at […] [4, 10]: 23%
inhibition of growth at 6.3e-05 ppm ([3]; Parastagonospora nodorum, 168 h, solo product, 0.000063 ppm, read-out: Observed efficacy): 26%
inhibition of growth at 4 ppm [5, 11]: 4%
inhibition of growth at 16 ppm [5, 11]: 4%
inhibition of growth at 0.004 ppm [6, 12]: 0%
inhibition of growth at 1 ppm [6, 12]: 37%

Cn1cc(C(=O)Nc2ccc(F)cc2-c2ccc(Cl)c(Cl)c2)c(C(F)F)n1 [II-6, bixafen, reference compound]
Observed efficacy ([2]; solo 0.001 ppm): 5
Observed efficacy ([2]; solo 0.004 ppm): 38
Observed efficacy ([4]; solo 0.016 ppm): 8
Observed efficacy ([5]; 1 ppm): 25

C[N+]1(C)CCCCC1.[Cl-] [Mepiquat-cl]
Observed efficacy [1, 13]: 16%
Observed efficacy ([2]; solo 16 ppm): 10
Observed efficacy ([2]; solo 63 ppm): 16
Observed efficacy ([4]; solo 16 ppm): 11
Observed efficacy ([3]; solo 63 ppm): 28

CC(C)C1C2CCC1c1c(NC(=O)c3cn(C)nc3C(F)F)cccc12 (stereo not shown) [II-50, isopyrazam, reference compound]
Observed efficacy ([2]; solo 0.016 ppm): 15
Observed efficacy ([4]; solo 0.016 ppm): 6

Cn1cc(C(=O)Nc2ccccc2-c2cc(F)c(F)c(F)c2)c(C(F)F)n1 [II-42, fluxapyroxad, reference compound]
Observed efficacy ([2]; solo 0.001 ppm): 4
Observed efficacy ([2]; solo product, 0.001 ppm): 4%

CON=C(C(=O)OC)c1ccccc1CON=C(C)c1cccc(C(F)(F)F)c1 [II-92, trifloxystrobin, reference compound]
Observed efficacy ([2]; solo 0.004 ppm): 7
Observed efficacy ([2]; solo 0.016 ppm): 11
inhibition of growth at 1 ppm [5, 11]: 37%

CCCCCCCCc1c(CC)nc2ncnn2c1N [II-1, ametoctradin, reference compound]
Observed efficacy ([2]; solo 4 ppm): 5
Observed efficacy ([2]; solo 16 ppm): 2
Observed efficacy ([2]; solo 63 ppm): 6
Observed efficacy ([4]; solo 16 ppm): 3
Observed efficacy ([4]; solo 63 ppm): 4

CCC(=O)C1=C([O-])CC(C(=O)[O-])CC1=O.[Ca+2] (stereo not shown) [Prohexadion-Ca]
Observed efficacy [1, 13]: 15%
Observed efficacy ([2]; solo 4 ppm): 6
Observed efficacy ([2]; solo 16 ppm): 2
Observed efficacy ([2]; solo 63 ppm): 2
Observed efficacy ([4]; solo 4 ppm): 10
Observed efficacy ([4]; solo 16 ppm): 5
Observed efficacy ([4]; solo 63 ppm): 4
Observed efficacy ([3]; solo 63 ppm): 23
